tested on: southern armyworm (Spodopetra eridania Cramer); experiment: Mite/insect screen, Southern armyworm; assay type: in vivo; settings: Spodoptera eridania; rate 200 ppm, sprayed leaves; read-out: SAW results (percent mortality)
Outline: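 Southern armyworm larvae placed in Petri dishes with two excised squash leaves that had been sprayed to runoff (10 psi) with emulsified compound and air-dried for 1 h. Mortality in percent recorded after a standard exposure period; formulation acetone/alcohol plus Toximul R and S, water-diluted.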

SMILES | mortality at 200 ppm
CCOc1ccc(CCNc2ncnc3oc(C)cc23)cc1 [Example 9, 6-methyl-N-[2-(4-ethoxyphenyl)ethyl]furo(2,3-d]pyrimidin-4-amine] | 0%
Cc1cc2c(NCCc3cccc(C(F)(F)F)c3)ncnc2o1 [Example 8, 6-methyl-N-[2-[3-(trifluoromethyl)phenyl]ethyl]furo[2,3-d]pyrimidin-4-amine] | 0%
Cc1oc2ncnc(Oc3ccc(F)cc3)c2c1C [Example 49, 5,6-dimethyl-4-(4-fluorophenoxy)furo[2,3-d]pyrimidine] | 80%

same assay, conditions: Spodoptera eridania; rate 400 ppm, sprayed leaves; read-out: SAW results (percent mortality)

SMILES | mortality at 400 ppm
CCOc1ccc(CCNc2ncnc3oc(C)cc23)cc1 [Example 9, 6-methyl-N-[2-(4-ethoxyphenyl)ethyl]furo(2,3-d]pyrimidin-4-amine] | 0%
Cc1cc2c(NCCc3cccc(C(F)(F)F)c3)ncnc2o1 [Example 8, 6-methyl-N-[2-[3-(trifluoromethyl)phenyl]ethyl]furo[2,3-d]pyrimidin-4-amine] | 0%
Cc1oc2ncnc(Oc3ccc(F)cc3)c2c1C [Example 49, 5,6-dimethyl-4-(4-fluorophenoxy)furo[2,3-d]pyrimidine] | 0%

tested on: Erysiphe graminis tritici (powdery mildew); experiment: Plant pathology screen (Test 1), powdery mildew on wheat; settings: Blumeria graminis, in Triticum aestivum, foliar, read-out: POWD MDEW control rating

SMILES | pest or weed control at 400 µg/mL
CCOc1ccc(CCNc2ncnc3oc(C)cc23)cc1 [Example 9, 6-methyl-N-[2-(4-ethoxyphenyl)ethyl]furo(2,3-d]pyrimidin-4-amine] | 0 to 19%
Cc1cc2c(NCCc3cccc(C(F)(F)F)c3)ncnc2o1 [Example 8, 6-methyl-N-[2-[3-(trifluoromethyl)phenyl]ethyl]furo[2,3-d]pyrimidin-4-amine] | 20 to 89%
Cc1oc2ncnc(Oc3ccc(F)cc3)c2c1C [Example 49, 5,6-dimethyl-4-(4-fluorophenoxy)furo[2,3-d]pyrimidine] | 90 to 100%

tested on: melon aphids (Aphis gossvpii Glover); experiment: Mite/insect screen, melon aphids; assay type: in vivo; settings: Aphis; rate 200 ppm, sprayed leaves; read-out: MA results (percent mortality)
Outline: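 Percent mortality of melon aphids was assessed after standard exposure periods. Infested squash cotyledons had been sprayed on both leaf surfaces until runoff at 10 psi with water-diluted test solutions. Compounds were formulated in acetone/alcohol (50:50) containing emulsifiers.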

SMILES | mortality at 200 ppm
CCOc1ccc(CCNc2ncnc3oc(C)cc23)cc1 [Example 9, 6-methyl-N-[2-(4-ethoxyphenyl)ethyl]furo(2,3-d]pyrimidin-4-amine] | 0%
Cc1cc2c(NCCc3cccc(C(F)(F)F)c3)ncnc2o1 [Example 8, 6-methyl-N-[2-[3-(trifluoromethyl)phenyl]ethyl]furo[2,3-d]pyrimidin-4-amine] | 0%
Cc1oc2ncnc(Oc3ccc(F)cc3)c2c1C [Example 49, 5,6-dimethyl-4-(4-fluorophenoxy)furo[2,3-d]pyrimidine] | 0%

same assay, conditions: Aphis; rate 400 ppm, sprayed leaves; read-out: MA results (percent mortality)

SMILES | mortality at 400 ppm
CCOc1ccc(CCNc2ncnc3oc(C)cc23)cc1 [Example 9, 6-methyl-N-[2-(4-ethoxyphenyl)ethyl]furo(2,3-d]pyrimidin-4-amine] | 0%
Cc1cc2c(NCCc3cccc(C(F)(F)F)c3)ncnc2o1 [Example 8, 6-methyl-N-[2-[3-(trifluoromethyl)phenyl]ethyl]furo[2,3-d]pyrimidin-4-amine] | 0%
Cc1oc2ncnc(Oc3ccc(F)cc3)c2c1C [Example 49, 5,6-dimethyl-4-(4-fluorophenoxy)furo[2,3-d]pyrimidine] | 0%

tested on: Puccinia recondita tritici (leaf rust); experiment: Plant pathology screen (Test 1), leaf rust on wheat; settings: in Triticum aestivum, foliar, read-out: LEAF RUST control rating

SMILES | pest or weed control at 400 µg/mL
CCOc1ccc(CCNc2ncnc3oc(C)cc23)cc1 [Example 9, 6-methyl-N-[2-(4-ethoxyphenyl)ethyl]furo(2,3-d]pyrimidin-4-amine] | 90 to 100%
Cc1cc2c(NCCc3cccc(C(F)(F)F)c3)ncnc2o1 [Example 8, 6-methyl-N-[2-[3-(trifluoromethyl)phenyl]ethyl]furo[2,3-d]pyrimidin-4-amine] | 90 to 100%
Cc1oc2ncnc(Oc3ccc(F)cc3)c2c1C [Example 49, 5,6-dimethyl-4-(4-fluorophenoxy)furo[2,3-d]pyrimidine] | 90 to 100%

tested on: Botrytis cinerea (gray mold); experiment: Plant pathology screen (Test 1), gray mold on grape berries; settings: read-out: GRAY MOLD control rating

SMILES | pest or weed control at 400 µg/mL
CCOc1ccc(CCNc2ncnc3oc(C)cc23)cc1 [Example 9, 6-methyl-N-[2-(4-ethoxyphenyl)ethyl]furo(2,3-d]pyrimidin-4-amine] | 0 to 19%
Cc1cc2c(NCCc3cccc(C(F)(F)F)c3)ncnc2o1 [Example 8, 6-methyl-N-[2-[3-(trifluoromethyl)phenyl]ethyl]furo[2,3-d]pyrimidin-4-amine] | 0 to 19%
Cc1oc2ncnc(Oc3ccc(F)cc3)c2c1C [Example 49, 5,6-dimethyl-4-(4-fluorophenoxy)furo[2,3-d]pyrimidine] | 0 to 19%

tested on: Pseudoperonospora cubensis (downy mildew); experiment: Plant pathology screen (Test 1), downy mildew on squash; settings: foliar, read-out: DOWN MDEW control rating

SMILES | pest or weed control at 400 µg/mL
CCOc1ccc(CCNc2ncnc3oc(C)cc23)cc1 [Example 9, 6-methyl-N-[2-(4-ethoxyphenyl)ethyl]furo(2,3-d]pyrimidin-4-amine] | 20 to 89%
Cc1cc2c(NCCc3cccc(C(F)(F)F)c3)ncnc2o1 [Example 8, 6-methyl-N-[2-[3-(trifluoromethyl)phenyl]ethyl]furo[2,3-d]pyrimidin-4-amine] | 90 to 100%
Cc1oc2ncnc(Oc3ccc(F)cc3)c2c1C [Example 49, 5,6-dimethyl-4-(4-fluorophenoxy)furo[2,3-d]pyrimidine] | 0 to 19%

tested on: Southern corn rootworm (Diabrotica undecimpuctata howardi Barber); experiment: Mite/insect screen, corn rootworm; assay type: in vivo; settings: Diabrotica; CRW rate 12.00 ppm, soil; read-out: CRW results (percent mortality)
Outline: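 Five 2-3 instar larvae per cup were placed on sandy soil (15 g, with presoaked corn seed) treated 6–12 h earlier with 1 mL test solution, an emulsified acetone/alcohol formulation diluted in water. Cups kept at 23° C; mortality and phytotoxicity assessed as percent after standard exposures.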

SMILES | mortality at 12 ppm
CCOc1ccc(CCNc2ncnc3oc(C)cc23)cc1 [Example 9, 6-methyl-N-[2-(4-ethoxyphenyl)ethyl]furo(2,3-d]pyrimidin-4-amine] | 0%
Cc1cc2c(NCCc3cccc(C(F)(F)F)c3)ncnc2o1 [Example 8, 6-methyl-N-[2-[3-(trifluoromethyl)phenyl]ethyl]furo[2,3-d]pyrimidin-4-amine] | 0%
Cc1oc2ncnc(Oc3ccc(F)cc3)c2c1C [Example 49, 5,6-dimethyl-4-(4-fluorophenoxy)furo[2,3-d]pyrimidine] | 0%

same assay, conditions: Diabrotica; CRW rate 24.00 ppm, soil; read-out: CRW results (percent mortality)

SMILES | mortality at 24 ppm
CCOc1ccc(CCNc2ncnc3oc(C)cc23)cc1 [Example 9, 6-methyl-N-[2-(4-ethoxyphenyl)ethyl]furo(2,3-d]pyrimidin-4-amine] | 0%
Cc1cc2c(NCCc3cccc(C(F)(F)F)c3)ncnc2o1 [Example 8, 6-methyl-N-[2-[3-(trifluoromethyl)phenyl]ethyl]furo[2,3-d]pyrimidin-4-amine] | 0%
Cc1oc2ncnc(Oc3ccc(F)cc3)c2c1C [Example 49, 5,6-dimethyl-4-(4-fluorophenoxy)furo[2,3-d]pyrimidine] | 0%

tested on: Pyricularia oryzae (rice blast); experiment: whole plant or invertebrate; assay type: in vivo; settings: foliar, read-out: RICE BLAST control rating

SMILES | pest or weed control at 400 µg/mL
CCOc1ccc(CCNc2ncnc3oc(C)cc23)cc1 [Example 9, 6-methyl-N-[2-(4-ethoxyphenyl)ethyl]furo(2,3-d]pyrimidin-4-amine] | 0 to 19%
Cc1cc2c(NCCc3cccc(C(F)(F)F)c3)ncnc2o1 [Example 8, 6-methyl-N-[2-[3-(trifluoromethyl)phenyl]ethyl]furo[2,3-d]pyrimidin-4-amine] | 20 to 89%
Cc1oc2ncnc(Oc3ccc(F)cc3)c2c1C [Example 49, 5,6-dimethyl-4-(4-fluorophenoxy)furo[2,3-d]pyrimidine] | 0 to 19%

tested on: Twospotted spider mites (Tetranychus urticae Koch); experiment: Mite/insect screen, twospotted spider mites; assay type: in vivo; settings: Tetranychus urticae, rate 200 ppm, sprayed leaves; read-out: SM results (percent mortality)
Outline: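 Percent mortality, along with phytotoxicity, was read after standard exposure periods. Beforehand, mites established on both surfaces of squash cotyledons received a runoff spray (10 psi) of water-diluted compound formulated in acetone/alcohol with sulfonate/nonionic emulsifiers.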

SMILES | mortality at 200 ppm
CCOc1ccc(CCNc2ncnc3oc(C)cc23)cc1 [Example 9, 6-methyl-N-[2-(4-ethoxyphenyl)ethyl]furo(2,3-d]pyrimidin-4-amine] | 0%
Cc1cc2c(NCCc3cccc(C(F)(F)F)c3)ncnc2o1 [Example 8, 6-methyl-N-[2-[3-(trifluoromethyl)phenyl]ethyl]furo[2,3-d]pyrimidin-4-amine] | 0%
Cc1oc2ncnc(Oc3ccc(F)cc3)c2c1C [Example 49, 5,6-dimethyl-4-(4-fluorophenoxy)furo[2,3-d]pyrimidine] | 0%

same assay, conditions: Tetranychus urticae, rate 400 ppm, sprayed leaves; read-out: SM results (percent mortality)

SMILES | mortality at 400 ppm
CCOc1ccc(CCNc2ncnc3oc(C)cc23)cc1 [Example 9, 6-methyl-N-[2-(4-ethoxyphenyl)ethyl]furo(2,3-d]pyrimidin-4-amine] | 0%
Cc1cc2c(NCCc3cccc(C(F)(F)F)c3)ncnc2o1 [Example 8, 6-methyl-N-[2-[3-(trifluoromethyl)phenyl]ethyl]furo[2,3-d]pyrimidin-4-amine] | 0%
Cc1oc2ncnc(Oc3ccc(F)cc3)c2c1C [Example 49, 5,6-dimethyl-4-(4-fluorophenoxy)furo[2,3-d]pyrimidine] | 0%

From patent US5486516A, “Furopyrimidine derivatives” (DowElanco, priority 1993, dated 1996)
